Entries after “also recorded” stand apart in the source; their conditions may differ.
Experiments:
[1] = Metabolic stability, human; type: in vitro ADME; settings: Test conc: 2.5 µM
Text: (§1) Table 1 Physicochemical and in Vitro ADME Properties of DF2726A. | column: DF2726A

[2] = Pharmacokinetics in the rat, intravenous and oral; type: in vivo, Sprague Dawley rats
Procedure: Pharmacokinetics studies in the rat
DF2726A was administered to male Sprague Dawley rats (Charles River Srl. Calco Italy, 6-8 weeks old, n = 4/groups) intravenously (5 mg/kg, Dulbecco’s phosphate buffered saline) and orally (5 mg/kg Dulbecco’s phosphate buffered saline).
On day of treatment, an exact amount of DF2726A was dissolved in the appropriate volume of vehicle to obtain a final concentration of 2.0 mg/mL (IV) and 1 mg/mL (OS). Both of the formulations were filtered at 0.45 μm filter before use in animals.
After the administration of DF2726A, a 0.15-0.20 mL of blood was collected via jugular vein catheters with zero-dead volume disposable syringes (1 mL iv Insulin syringes with attached 25G […]
5/8 inch needles; Chemil s.r.l., Padova, Italy) at 0.08, 0.5, 1, 3, 6, 12, 24, 36 and 48 h for i.v. dosing and at 0.25, 0.5, 1, 3, 6, 12, 24, 36 and 48 h for oral dosing. After each blood withdrawal, the catheters were washed with 0.15-0.2 mL of sterile physiological saline and filled with 0.03 mL of heparin saline solution (0.25 U.I/mL). The heparinized blood was immediately centrifuged (8000 RPM for 5 min at approximately 4°C) and the resultant plasma transferred into vials and stored at - 20°C until analysis. DF2726A concentrations were quantified by HLPC-MS/MS using a chromatographic method with a lower limit of quantitation of 1 ng·mL -1. Non-compartmental analysis (Gibaldi and Perrier, 1982) were used to calculate the pharmacokinetic parameters using a MKModel by Nick Holford software Version 4, (Biosoft, Ferguson, MO 63 135, USA). […]

CYP 3A4 = CYP 3A4 (Homo sapiens, UniProt P08684); assay: CYP inhibition 3A4; type: in vitro ADME
Sequence of CYP 3A4 (P08684 whole entry): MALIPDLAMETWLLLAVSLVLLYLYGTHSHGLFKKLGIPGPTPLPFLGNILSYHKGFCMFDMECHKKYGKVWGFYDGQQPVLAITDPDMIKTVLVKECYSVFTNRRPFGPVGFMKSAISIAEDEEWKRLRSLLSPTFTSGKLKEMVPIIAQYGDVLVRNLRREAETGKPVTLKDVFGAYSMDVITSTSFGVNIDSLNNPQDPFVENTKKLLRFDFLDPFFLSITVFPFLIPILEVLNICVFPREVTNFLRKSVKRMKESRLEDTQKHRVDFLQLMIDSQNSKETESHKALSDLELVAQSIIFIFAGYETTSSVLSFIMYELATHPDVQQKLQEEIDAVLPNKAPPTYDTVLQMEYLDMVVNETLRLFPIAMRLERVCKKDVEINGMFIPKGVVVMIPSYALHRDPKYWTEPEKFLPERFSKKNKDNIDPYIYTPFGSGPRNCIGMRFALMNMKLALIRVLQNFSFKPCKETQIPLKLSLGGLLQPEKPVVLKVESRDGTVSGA
Text: as §1

CYP 2C19 = CYP 2C19 (Homo sapiens, UniProt P33261); assay: CYP inhibition 2C19; type: in vitro ADME
Sequence of CYP 2C19 (P33261 whole entry): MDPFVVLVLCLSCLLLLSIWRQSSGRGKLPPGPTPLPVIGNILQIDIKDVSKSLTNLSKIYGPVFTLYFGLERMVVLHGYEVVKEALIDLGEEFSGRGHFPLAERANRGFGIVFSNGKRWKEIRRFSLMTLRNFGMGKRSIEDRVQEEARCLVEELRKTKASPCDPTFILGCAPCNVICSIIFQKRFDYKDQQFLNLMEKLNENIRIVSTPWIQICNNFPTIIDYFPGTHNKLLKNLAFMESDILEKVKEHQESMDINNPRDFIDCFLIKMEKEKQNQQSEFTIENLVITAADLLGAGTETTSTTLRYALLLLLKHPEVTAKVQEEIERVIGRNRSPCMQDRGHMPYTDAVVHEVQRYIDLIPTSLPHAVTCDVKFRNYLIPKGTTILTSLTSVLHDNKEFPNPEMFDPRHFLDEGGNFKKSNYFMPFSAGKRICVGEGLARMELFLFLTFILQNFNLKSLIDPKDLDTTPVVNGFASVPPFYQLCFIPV
Text: as §1

TRPM8 = assay: Western blot of DRG of oxaliplatin rats, TRPM8; type: in vivo, male Wistar rats; settings: 30 mg/kg os
Procedure: Animals were sacrificed and dorsal root ganglia (DRG) (L4-L6) were removed and stored at […]. They were homogenized on ice-cold lysis buffer [20 mM Tris–HCl (pH 7.5), 10 mM NaF, 150 mM NaCl, 1% Nonidet P-40, 1 mM phenylmethylsulfonyl fluoride, 1 mM Na3VO4, leupeptin and trypsin inhibitor 10 μg/mL; 20 µl/sample, as previously described.
After 1 h, tissue lysates were obtained by centrifugation at 20,000 g for 15 min at 4 °C. Protein concentrations were estimated by the Bio-Rad protein assay using bovine serum albumin as standard.
DRG lysate proteins (30 μg) were dissolved in Laemmli sample buffer, boiled for 5 min, and separated on SDS-polyacrylamide gel elctrophoresis and transferred onto nitrocellulose membrane (240 mA for 40 min at room temperature). […] The protein bands were scanned and densitometrically analyzed with a model GS-700 imaging densitometer (Bio-Rad Laboratories, Milan, Italy). […]

acetylated α-tubulin [3] = assay: Acetylated α-tubulin in F11-derived neurons (immunofluorescence, western blotting); type: cell-based; settings: 24 h
acetylated α-tubulin [4] = assay: Acetylated α-tubulin immunofluorescence of nerve fibres in paw sections of oxaliplatin rats; type: in vivo, male Wistar rats; settings: 30 mg/kg os, rat paw sections
Procedure: Animals were sacrificed and a biopsy (3 mm) was taken from pad of the right hind paw. Biopsies were immediately placed in Zamboni’s fixative, where they were left at 4 °C. Tissues were then transferred to 20% sucrose for at least 24 h and used for immunohistochemistry analysis. Specimens were frozen in Optimal Cutting Temperature compound (OCT, Sakura Finetek Inc, CA, USA) and sliced into 20 μm thick serial coronal sections by cryostat AMES LAB-TEK (Westmont, Illinois, USA).
In brief, sections were blocked with phosphate buffer saline (PBS) containing 10% (Bovine Serum Albumin) and 0.3% Tween-20, for 1 h at RT and incubated, overnight at 4 °C, with the primary antibodies: IL-8 (mouse, 1:25, R&D Systems Inc. Minneapolis, MN, USA), PGP9.5 (rabbit, 1:1000, AbD Serotec, NC, USA), acetylated alpha tubulin (mouse, 1:250, Abcam Cambridge, MA, USA) and collagen IV (goat, 1:25, Southern Biotech, Birmingham, AL, USA). Sections were then rinsed in PBS several times before incubation for 2 h at RT with secondary antibodies, donkey AlexaFluor 488 anti-rabbit or donkey AlexaFluor 633 (1:2000), goat anti-mouse conjugated with Alexafluor 488 (1:2000; Life Technologies, Camarillo, CA, USA). […]

[5] = single 5 mg/kg intravenous dose

CC(C)(C(=O)O)c1ccc(Nc2nc(C(F)(F)F)cs2)cc1 [DF2726A]
Metabolic stability human [1]: 7.0 µL/min/10^6 cells | AUC0-last Oral ([2]; 5 mg/kg oral dose): 136.3 ± 22.6 µg·h/mL | Cmax Oral ([2]; 5 mg/kg oral dose): 6860 ± 1600 ng/mL | t1/2 Oral ([2]; 5 mg/kg oral dose): 16.2 ± 3.3 h | tmax Oral ([2]; 5 mg/kg oral dose): 6.0 h | F (oral bioavailability) ([2]; 5 mg/kg oral vs 5 mg/kg intravenous): 96.8% | AUC0-last Intravenous [2, 5]: 140.8 ± 24.9 µg·h/mL | CLtotal Intravenous [2, 5]: 0.62 ± 0.11 mL/min/kg | Vd Intravenous [2, 5]: 0.52 ± 0.09 L/kg | t1/2 Intravenous [2, 5]: 15.2 ± 3.8 h | IC50 (CYP 3A4): > 30 µM | IC50 (CYP 2C19): > 30 µM | TRPM8 expression in DRG of oxaliplatin rats (TRPM8): significant reduction in the expression | Acetylated α-tubulin in neurons treated with DF2726A alone (acetylated α-tubulin [3]; 1 µM, immunofluorescence): moderately present | Acetylated α-tubulin in oxaliplatin-treated neurons, combination with DF2726A (acetylated α-tubulin [3]; DF2726A 1 µM + oxaliplatin 20 µM): counteracts chemotherapy-mediated effects; also recorded: comparable to that of control cells | Acetylated α-tubulin in paclitaxel-treated neurons, combination with DF2726A (acetylated α-tubulin [3]; DF2726A + paclitaxel 10 nM): The same effect was observed; also recorded: comparable to that of control cells | Acetylated α-tubulin levels in nerve fibres of oxaliplatin rats (acetylated α-tubulin [4]): completely restored control conditions

Source: paper PMC6692352, “DF2726A, a new IL-8 signalling inhibitor, is able to counteract chemotherapy-induced neuropathic pain” (Scientific Reports, 2019)
